Experimental data: BigSolDB 2.1

CCC[C@@H]1C[C@@H](C(=O)N[C@@H]([C@H]2O[C@H](SC)[C@H](O)[C@H]3OC(C)(C)O[C@H]32)[C@H](C)Cl)N(C)C1
solubility (mole fraction)
Details | 273.15 K | 278.15 K | 283.15 K | 288.15 K | 293.15 K | 298.15 K | 303.15 K | 308.15 K | 313.15 K
in acetone | 0.0112 | 0.0132 | 0.0164 | 0.0195 | 0.024 | 0.0283 | 0.0348 | 0.0425 | 0.0502
in acetonitrile | 0.0032 | 0.004 | 0.005 | 0.0063 | 0.0078 | 0.0098 | 0.0123 | 0.0153 | 0.0189
in ethanol | 0.0146 | 0.0179 | 0.0208 | 0.0243 | 0.0292 | 0.0352 | 0.0423 | 0.0506 | 0.0594
in ethyl acetate | 0.0075 | 0.0093 | 0.0114 | 0.0143 | 0.0175 | 0.0215 | 0.026 | 0.0319 | 0.0388
in isobutanol | 0.0139 | 0.0175 | 0.022 | 0.0274 | 0.0334 | 0.0409 | 0.0491 | 0.0584 | 0.0696
in isopropanol | 0.0102 | 0.0124 | 0.0149 | 0.018 | 0.022 | 0.0266 | 0.0324 | 0.0393 | 0.0468
in methanol | 0.0212 | 0.0255 | 0.0306 | 0.0351 | 0.0408 | 0.0481 | 0.0554 | 0.0651 | 0.0746
in methyl acetate | 0.0087 | 0.0102 | 0.0132 | 0.0162 | 0.0198 | 0.024 | 0.0293 | 0.0355 | 0.042
in n-butanol | 0.0166 | 0.0213 | 0.0272 | 0.0325 | 0.0391 | 0.0478 | 0.0571 | 0.0672 | 0.0794
in n-propanol | 0.015 | 0.0189 | 0.0238 | 0.0294 | 0.0363 | 0.0428 | 0.0529 | 0.0637 | 0.0751
in n-propyl acetate | 0.0065 | 0.008 | 0.0106 | 0.0124 | 0.0152 | 0.0183 | 0.0223 | 0.0283 | 0.0347
in sec-butanol | 0.0229 | 0.0282 | 0.0344 | 0.0413 | 0.0507 | 0.0597 | 0.0709 | 0.0813 | 0.0947
